In publication PMC9322122, “Development of (4-Phenylamino)quinazoline Alkylthiourea Derivatives as Novel NF-κB Inhibitors” (Pharmaceuticals, 2022):
Entries after “also recorded” stand apart in the source; their conditions may differ.

What was measured:
[1] = system: IL-6 production; experiment: IL-6 production in LPS-activated dTHP-1 cells (ELISA); type: cell-based, human; conditions: Homo sapiens
Method: (§1) The HEK-293 (ATCC Cat# CRL-1573, RRID:CVCL_0045) and human monocytic THP−1 cells (ATCC Cat# TIB-202, RRID:CVCL_0006) were, respectively, cultured in DMEM and RPMI 1640 media supplemented with 10% fetal bovine serum, 2 mM L-glutamine, and 1× Antibiotic-Antimycotic at 37 °C in a humidified incubator with 5% CO2. THP−1 cells were differentiated by 100 nM phorbol-12-myristate-13-acetate (PMA) for 4 h and then rested for 44 h as dTHP−1 cells.
(§2) The dTHP−1 cells were treated with indicated compounds for 3 h and then activated with or without 100 ng/mL lipopolysaccharide (LPS; E. coli 0111:B4) for another 24 h. The levels of human IL-6 and TNFα in supernatants were measured by DuoSet® ELISA Development System (R&D systems, Minneapolis, MN, USA) according to the manufacturer’s protocol.

[2] = Cell viability (WST-1), HEK293; type: cell-based; conditions: human, HEK293 cells, mean ± SEM, n = 3
Method: (§3) Cells were incubated with the WST-1 reagent (Thermo Fisher Scientific, Waltham, MA, USA) at 37 °C for 2 h. The cell viability was determined by spectrophotometer at 450 nm.

[3] = system: phospho-NF-κB p65 (S468); experiment: Western blot phospho-NF-κB p65 (S468) in dTHP-1 cells; type: cell-based, human; conditions: 7.5 µM; LPS-stimulated dTHP-1 cells
Method: (§4) Cells were lysed in the commercial RIPA Buffer (Thermo Fisher Scientific, Waltham, MA, USA) and then centrifuged at 14,000× g for 20 min. […] Antibodies used in this study were phospho-NF-κB p65 (S468; catalog no. 3039), phospho-NF-κB p65 (S536; catalog no. 3033), phospho-IKKα/β (catalog no. 2697), and IκB (catalog no. 9242) from Cell Signaling Technology (Beverly, MA, USA); GAPDH from ABclonal (catalog no. A10868; Woburn, MA, USA). The labeled signals were determined using an enhanced chemiluminescence system (UVP, Upland, CA, USA). The experiments were performed at least two times in triplicate, providing basically the same results.
(§5) The dTHP−1 cells were incubated with DMSO (0.1%), 19 (7.5 µM), or CAPE (10 µM) in medium for 3 h and then stimulated with or without LPS (0.1 µg/mL) for another 30 min. (A) Nuclear translocation of NF-κB p65 (green) was determined by immunofluorescent microscopy. Hoechst (blue) was used for nuclei staining. (B) The nuclear NF-κB p65-positive cells were quantified. (C) The levels of phospho-NF-κB p65 (S468), IκB, and GAPDH were determined by Western blot. (D) The normalized phospho-NF-κB p65 (S468) and IκB levels were quantified. All data are expressed as mean ± SEM (n = 3); ** p < 0.01 and *** p < 0.001 compared with the DMSO + LPS group.

[4] = system: TNFα production; experiment: TNFα production in LPS-activated dTHP-1 cells (ELISA); type: cell-based; conditions: Homo sapiens
Method: as §1, §2

[5] = molecular target: Recombinant EGFR kinase (Homo sapiens, UniProt P00533); experiment: Recombinant EGFR kinase activity; type: biochemical; conditions: read-out: Recombinant EGFR Kinase Activity (%inh at 150 nM)
Recombinant EGFR kinase, sequence (P00533 25-1210): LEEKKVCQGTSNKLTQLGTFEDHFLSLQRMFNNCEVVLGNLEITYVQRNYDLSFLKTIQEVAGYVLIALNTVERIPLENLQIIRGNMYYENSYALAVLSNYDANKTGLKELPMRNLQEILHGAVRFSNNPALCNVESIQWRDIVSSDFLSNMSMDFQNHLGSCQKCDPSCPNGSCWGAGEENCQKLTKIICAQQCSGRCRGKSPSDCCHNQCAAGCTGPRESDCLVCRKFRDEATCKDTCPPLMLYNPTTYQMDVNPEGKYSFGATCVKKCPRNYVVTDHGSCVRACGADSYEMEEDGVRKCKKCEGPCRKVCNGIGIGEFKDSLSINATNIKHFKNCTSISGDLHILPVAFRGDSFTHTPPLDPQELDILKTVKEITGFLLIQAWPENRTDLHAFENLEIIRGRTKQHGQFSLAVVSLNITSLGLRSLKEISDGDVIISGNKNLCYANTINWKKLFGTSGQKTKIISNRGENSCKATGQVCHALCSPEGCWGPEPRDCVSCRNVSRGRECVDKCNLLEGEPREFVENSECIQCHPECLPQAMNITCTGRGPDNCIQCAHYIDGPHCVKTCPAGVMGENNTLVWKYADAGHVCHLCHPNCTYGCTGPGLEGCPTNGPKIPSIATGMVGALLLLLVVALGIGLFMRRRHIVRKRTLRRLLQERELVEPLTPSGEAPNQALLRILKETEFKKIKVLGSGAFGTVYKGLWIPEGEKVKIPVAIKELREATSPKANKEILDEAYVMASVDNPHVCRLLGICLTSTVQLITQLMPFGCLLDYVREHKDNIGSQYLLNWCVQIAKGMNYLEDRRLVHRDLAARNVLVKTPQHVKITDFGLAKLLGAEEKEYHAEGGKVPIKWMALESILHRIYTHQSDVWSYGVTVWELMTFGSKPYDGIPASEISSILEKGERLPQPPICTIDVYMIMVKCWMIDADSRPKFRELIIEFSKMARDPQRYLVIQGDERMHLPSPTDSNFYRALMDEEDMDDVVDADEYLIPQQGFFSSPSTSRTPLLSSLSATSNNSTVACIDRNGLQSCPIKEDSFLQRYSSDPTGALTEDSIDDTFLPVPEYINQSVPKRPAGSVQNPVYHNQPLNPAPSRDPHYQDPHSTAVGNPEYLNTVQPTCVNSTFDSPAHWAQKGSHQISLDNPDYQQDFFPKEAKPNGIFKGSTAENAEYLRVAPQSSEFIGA

[6] = system: dTHP−1 cells; experiment: Cell viability of dTHP-1 cells with or without LPS; type: cell-based, human; conditions: in % (unit assumed)
Method: as §1, §3, §2

[7] = system: phospho-NF-κB p65 (S536); experiment: Western blot phospho-NF-κB p65 (S536) in dTHP-1 cells; type: cell-based, human; conditions: 7.5 µM; LPS-stimulated dTHP-1 cells
Method: as §4
The dTHP−1 cells were incubated with DMSO (0.1%), 19 (7.5 µM), or CAPE (10 µM) in medium for 3 h and then stimulated with or without LPS (0.1 µg/mL) for another 30 min. (A) The levels of phospho-NF-κB p65 (S536), phospho-IKKα/β, IκB, and GAPDH were determined by Western blot. The normalized (B) phospho-NF-κB p65 (S536), (C) phospho-IKKα/β, and (D) IκB levels were quantified. All data are expressed as mean ± SEM (n = 3); * p < 0.05 compared with the DMSO + LPS group.

[8] = system: NF-κB p65; experiment: Nuclear translocation of NF-κB p65, immunofluorescent staining; type: cell-based, human; conditions: 7.5 µM, 3 h, then LPS 0.1 µg/mL 30 min; dTHP-1 cells
Method: Cells were fixed with 4% formaldehyde and then incubated with 5% goat serum. The intracellular location of NF-κB p65 was determined using primary antibodies against NF-κB p65 (Cell Signaling Technology, Beverly, MA, USA) and FITC-conjugated secondary antibody. Nuclei were counterstained with Hoechst (1 µg/mL). Images were obtained by fluorescent microscopy (OLYMPUS IX 81; Olympus, Tokyo, Japan).
as §5

[9] = LPS-activated dTHP-1 cells, 24 h

IC50 [1, 9]: 840 ± 120 nM
IC50 [4, 9]: 4000 ± 200 nM
inhibition at 0.15 µM [5]: 23%
Structure (SMILES): S=C(Nc1ccc2ncnc(Nc3cccc(Cl)c3)c2c1)NC1CCCC1 [Compound 19, 1-(4-((3-Chlorophenyl)amino)quinazolin-6-yl)-3-cyclopentylthiourea]
inhibition at 7.5 µM ([1]; 7.5 μM, LPS 100 ng/mL for 24 h, dTHP-1 cells, read-out: IL-6 Production Inh % (7.5 μM)): 92.7 ± 5.5%
inhibition at 15 µM ([1]; 15 μM, LPS 100 ng/mL for 24 h, dTHP-1 cells, read-out: IL-6 Production Inh % (15 μM)): 98.3 ± 0.28%
viability at 10 µM [2]: 118 ± 11.4%
Phosphorylation of p65-Ser468 [3]: significantly diminished phosphorylation of p65-Ser468
inhibition at 7.5 µM ([4]; 7.5 μM, LPS 100 ng/mL for 24 h, dTHP-1 cells, read-out: TNFα Production Inh % (7.5 μM)): 82.5 ± 5.6%
inhibition at 15 µM ([4]; 15 μM, LPS 100 ng/mL for 24 h, dTHP-1 cells, read-out: TNFα Production Inh % (15 μM)): 91.5 ± 2.5%
Cell viability of dTHP-1 cells, 5 μM, LPS ([6]; 5 μM (so in the source), LPS 100 ng/mL for 24 h): 4.9 ± 0.38
Cell viability of dTHP-1 cells, 5 μM, without LPS ([6]; 5 μM (so in the source), no LPS): 30.0 ± 1.3
Cell viability of dTHP-1 cells, 7.5 μM, without LPS ([6]; 7.5 μM, no LPS): 60.3 ± 0.85
Phosphorylation of p65 at Ser536 [7]: not affected
LPS-induced nuclear translocation of NF-κB p65 [8]: inhibits the LPS-induced nuclear translocation of NF-κB p65; also recorded: clearly inhibited the nuclear translocation of NF-κB
